This note sets out measurements from patent US20070092503A1, “Human alkaline sphingomyelinase and use thereof” (priority 2003, published 2007).

Data set [1] deals with T1, human Alk-Smase (Homo sapiens, UniProt Q6UWV6).
T1 construct: Human Alk-Smase has now been purified from small intestinal content; from tissue; host or cells: human small intestinal (ileostomy) content
T1 sequence (Q6UWV6 22-458): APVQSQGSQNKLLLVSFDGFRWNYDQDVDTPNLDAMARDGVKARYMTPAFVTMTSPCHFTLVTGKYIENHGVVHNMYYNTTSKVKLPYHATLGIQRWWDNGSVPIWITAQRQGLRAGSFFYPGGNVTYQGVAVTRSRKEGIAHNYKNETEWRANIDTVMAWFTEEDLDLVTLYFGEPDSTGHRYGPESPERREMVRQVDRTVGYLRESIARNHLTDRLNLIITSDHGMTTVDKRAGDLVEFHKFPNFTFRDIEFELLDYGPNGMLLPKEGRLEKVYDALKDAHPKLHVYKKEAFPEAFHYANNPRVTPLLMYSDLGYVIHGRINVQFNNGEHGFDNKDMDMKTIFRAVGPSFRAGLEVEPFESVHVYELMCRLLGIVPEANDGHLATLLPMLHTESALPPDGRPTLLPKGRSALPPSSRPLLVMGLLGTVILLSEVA
Put plainly: Alk-Smase activity in the presence of metal ions, detergents, bile salts, glutathione. In kind it is biochemical. How it is done: As bile salts are important factors for lipid digestion, the effects of different bile salts on human Alk-Smase were investigated. […] The activities were determined in the presence of different concentrations of bile salts.

A further data set deals with bacterial neutral Smase. Particulars: reduced form.
Data set [2] has as its target T1, human Alk-Smase. Put plainly: Alk-Smase activity in the presence of metal ions, detergents, bile salts, glutathione. In kind it is biochemical. The source holds these as a separate data set.
The subject of another data set is Cos-7 cells. Put plainly: Alk-Smase activity of transfected cells (cell lysate and medium). In kind it is cell-based. The protocol: Cos 7 cells are transfected with either the wild type of Alk-Smase cDNA (sequence 21-1397 of ID No 5, reading frame) which encodes Seq ID No 4, or transfected with the Alk-Smase cDNA sequence from 21-1285 (C-truncated), which encodes a 415 amino acid sequence (Seq ID No 6). After transfection, the Alk-Smase activity in the medium and in the cell lysate was determined.
pCMV-sports6-Smase is transfected into mammalian Cos-7 cells. To transfect the cells with pCMV-sports6-Smase 4×10^5 Cos-7 cells are seeded in a 25 cm^2 flask in 4 ml of Dulbecco's modified Eagle's medium with 10% heat inactivated fetal calf serum and 2 mM Glutamine.
The cells are incubated until 90% confluent.
Cells are then transfected with 5 microgram pCMV-sports6-Smase and 16 microgram lipofectamine 2000™ in each flask followed by incubation for 48 h.
Untransfected cells are exposed to lipofectamine and treated the same as above.
At the end of the incubation, medium is collected and cells are lysed by a 50 mM Tris-HCl buffer containing 1 mM PMSF, 2 mM EDTA, 0.5 mM Dtt, 10 microgram/ml leupeptin, 10 microgram/ml aprotinine and 10 mM TC.
Cells are kept on ice, e.g., for 10 minutes, and then sonicated for 10 sec.
After centrifugation at 12000 g for 10 minutes at 4° C., human Alk-Smase activity and protein concentrations were determined.
Cos-7 cells transfected with a mock-vector is used as a control.

Data set [3] deals with HT29 human colon cancer cells. Put plainly: Proliferation of HT29 colon cancer cells, WST reagent. In kind it is cell-based. To be noted: for effect on proliferation / cell growth of HT29 cells: different doses, 18 h, WST reagent; for effect on DNA synthesis of HT-29 cells: enzyme added to cells in culture. How it is done: HT29 human colon cancer cells were incubated in RMPI-1640 medium with L-glutamine, containing antibiotics and 10% (v/v) heat inactivated fetal calf serum. At the exponential growth phase, the cells were incubated with purified rat Alk-Smase at different doses for 18 h. The cell proliferation rates were measured by WST reagent. Results are Mean± SD of three individual duplicate experiments.
Experimental conditions for the antiproliferative inhibition were that HT 29 cells were incubated with rat Alk-Smase at different doses for 18 h. The cell proliferation rates were measured by WST reagent.
HT29 human colon cancer cells were incubated in RMPI-1640 medium with L-glutamine containing antibiotics and 10% (v/v) heat inactivated fetal calf serum. At the exponential growth phase, the cells were incubated with purified rat Alk-Smase at different doses for 18 h. The cell proliferation rates were measured by WST reagent. Results are Mean±SD of three individual duplicate experiments.

A short description of data set [4]: Characterisation of Alk-Smase: sphingomyelin hydrolysis (pH dependence, hydrolytic capacity). Particulars: for hydrolytic capacity (Vmax, Lineweaver-Burk plot): sphingomyelin hydrolysed: by 1 mg of the enzyme in one hour.
Description: To distinguish whether the enzyme was different from the Mg dependent neutral Smase, activity at pH 7.5 in the presence of 4 mM Mg2+ in comparison wit pH 8.5 in the presence of 2 mM EDTA was assayed.
The nature of data set [5]: Lysophospholipase test with 14C-palmitoyl labelled lysophosphatidylcholine, TLC separation. In kind it is biochemical. How it is done:
At present the most intriguing functional similarity between Alk-Smase and NPP is the earlier observation that NPP2 has lysophospholipase D activity (M Umezo-Gozo et al J Cell Biol 2002; 158:227-33). To determine whether Alk-Smase also has lysophospholipase D activity, a trace amount of ^14C-palmitoyl labelled 1palmitoyl-lysosphosphatidylcholine was incubated with Alk-Smase using the optimal incubation conditions previously described (R D Duan and Å Nilsson Methods Enzymol 2000; 311:276-86). Lipids were then extracted according to known methods (Bligh and Dyer J Biochem Physiol 1959; 37:911-917), and separated on silica gel G plates that were developed in chloroform:methanol:water:acetic acid 25:20:0.3:3. The silica gel separates lysophosphatidylcholine and lysophosphatidic acid that are formed if there is a lysophospholipase D and monoglyceride formed by lysophospholipase C. […] It is therefore further disclosed herein that Alk-Smase may also influence cellular functions by removing lysophosphatidylcholine which can then not be converted to lysophosphatidic acid. Lysophosphatidic acid is a metabolite that stimulates growth of colon tumour cells. Our earlier studies have shown that Alk-Smase is not a general phosphlipase C since it has low activity against phosphatidylcholine (RD Duan, A Nilsson Methods Enzymol 2000; 311:276-86).

As to Triton X 100, at human Alk-Smase [1] (in the presence or absence of TC (10 mM)), the “effect on human Alk-Smase activity” value is given as “strongly inhibits”.

Consider `N[C@@H](CCC(=O)N[C@@H](CS)C(=O)NCC(=O)O)C(=O)O` [glutathione], for which, on human Alk-Smase [1] (7.5 mM glutathione, reduced form), the “reduction of Alk-Smase activity” value came out at 1%. The “effect on Alk-Smase activity (in words)” value on human Alk-Smase [1] (reduced form of glutathione) is “only slightly reduced”. Further, the “reduction of neutral Smase activity” value in the data set on bacterial neutral Smase (7.5 mM glutathione) is on record as 98%. Further, in the data set with bacterial neutral Smase, the “concentration above which neutral Smase activity is sharply abolished” value is “higher than 5 mM”.

Regarding `[Zn+2]` [Zn2^+], at human Alk-Smase [1] (read-out: concentration giving 50% inhibition of Alk-Smase activity), the IC50 is 15 µM.

Turning to `C[C@H](CCC(=O)NCCS(=O)(=O)O)[C@H]1CC[C@H]2[C@@H]3[C@H](O)C[C@@H]4C[C@H](O)CC[C@]4(C)[C@H]3CC[C@]12C` [TCDC, taurochenodeoxycholate], on human Alk-Smase [1] (maximum at the CMC of each bile salt), the “maximal stimulating effect of bile salt on human Alk-Smase” value is on record as “far more effective than other bile salts”.

As to `O=C(O)CN(CCN(CC(=O)O)CC(=O)O)CC(=O)O` [EDTA], the “inhibition of Alk-Smase by EDTA” value at human Alk-Smase [1] was “not inhibited”. The “reversal of the Zn2+ inhibition of Alk-Smase” value at human Alk-Smase [1] (2 mM EDTA) is recorded as “Most of the inhibitory effect of Zn2+ was reversed”.

As to `[Mg+2]` [Mg], the “effect of increasing concentrations of divalent cation on Alk-Smase activity” value on human Alk-Smase [2] is reported as “slightly increased”.

Turning to `C[C@H](CCC(=O)NCCC[N+](C)(C)CCCS(=O)(=O)[O-])[C@H]1CC[C@H]2[C@@H]3[C@H](O)C[C@@H]4C[C@H](O)CC[C@]4(C)[C@H]3C[C@H](O)[C@]12C` [CHAPS], the “effect on TC stimulation of Alk-Smase” value at human Alk-Smase [1] was “blocked the stimulatory effect of TC”. The “effect on Alk-Smase activity” value at human Alk-Smase [1] (very low concentration (0.025 mM)) was “only slightly increased the activity”.

Take `[Ca+2]` [Ca2^+]: the “effect of increasing concentrations of divalent cation on Alk-Smase activity” value on human Alk-Smase [2] is given as “slightly increased”.

B1: amino acid 1-415: C-truncated human Alk-Smase, 415 amino acid sequence encoded by cDNA 21-1285 (protein, listed as Homo sapiens)
chain: MRGPAVLLTVALATLLAPGAGAPVQSQGSQNKLLLVSFDGFRWNYDQDVDTPNLDAMARDGVKARYMTPAFVTMTSPCHFTLVTGKYIENHGVVHNMYYNTTSKVKLPYHATLGIQRWWDNGSVPIWITAQRQGLRAGSFFYPGGNVTYQGVAVTRSRKEGIAHNYKNETEWRANIDTVMAWFTEEDLDLVTLYFGEPDSTGHRYGPESPERREMVRQVDRTVGYLRESIARNHLTDRLNLIITSDHGMTTVDKRAGDLVEFHKFPNFTFRDIEFELLDYGPNGMLLPKEGRLEKVYDALKDAHPKLHVYKKEAFPEAFHYANNPRVTPLLMYSDLGYVIHGRINVQFNNGEHGFDNKDMDMKTIFRAVGPSFRAGLEVEPFESVHVYELMCRLLGIVPEANDGHLATLLPMLHT
In the case of B1, the “Alk-Smase activity produced, C-truncated versus full sequence cDNA” value with Cos-7 cells (transfected cells, FIG. 13) is on record as “higher”.

B2: human Alk-Smase: human intestinal alkaline sphingomyelinase, 458 amino acid protein purified from small intestinal content (protein, listed as Homo sapiens)
chain: MRGPAVLLTVALATLLAPGAGAPVQSQGSQNKLLLVSFDGFRWNYDQDVDTPNLDAMARDGVKARYMTPAFVTMTSPCHFTLVTGKYIENHGVVHNMYYNTTSKVKLPYHATLGIQRWWDNGSVPIWITAQRQGLRAGSFFYPGGNVTYQGVAVTRSRKEGIAHNYKNETEWRANIDTVMAWFTEEDLDLVTLYFGEPDSTGHRYGPESPERREMVRQVDRTVGYLRESIARNHLTDRLNLIITSDHGMTTVDKRAGDLVEFHKFPNFTFRDIEFELLDYGPNGMLLPKEGRLEKVYDALKDAHPKLHVYKKEAFPEAFHYANNPRVTPLLMYSDLGYVIHGRINVQFNNGEHGFDNKDMDMKTIFRAVGPSFRAGLEVEPFESVHVYELMCRLLGIVPEANDGHLATLLPMLHTESALPPDALLVADGPCLPSLSQAKGCMPLSPAAPTPAWLLWCW
Turning to B2, the “increase of human Alk-Smase activity in the medium” value in the data set on Cos-7 cells (Cos-7 cells transfected with pCMV-sports6-Smase, 48 h) worked out at 5 fold. In data set [3], the “effect on proliferation / cell growth of HT29 cells” value was “inhibit proliferation” and the “effect on DNA synthesis of HT-29 cells” value was “decreased DNA synthesis”. For the same molecule, in data set [4], the “activity at pH 8.5 with 2 mM EDTA compared with pH 7.5 with 4 mM Mg2+” value is “significantly higher” and the “hydrolytic capacity (Vmax, Lineweaver-Burk plot): sphingomyelin hydrolysed” value worked out at 11 mmol. For the same molecule, the “hydrolytic capacity (Vmax, Lineweaver-Burk plot): sphingomyelin hydrolysed” value in data set [4] (listed as Alk-Smase) is recorded as “about 11 mmole”. In data set [4] (pH 7.5 versus pH 8.5), the “activity at pH 7.5 relative to maximal activity” value is reported as “about 68%”. Further, the “formation of lysophosphatidic acid (lysophospholipase D activity)” value in data set [5] is recorded as “not demonstrated”. Moreover, the “lysophosphatidylcholine degraded to 14C-monoglyceride” value in data set [5] (in one hour, optimal incubation conditions) is reported as 80%.

B3: rat Alk-Smase: purified rat intestinal alkaline sphingomyelinase (protein, UniProt Q5EZ72 22-439, looked up)
Ectonucleotide …: GPVQRQQQHKLLLVSFDGFRWNYDQDVETPNLDSMAQEGVKARYMTPAFVTMTSPCHFTLVTGKYIENHGVVHNMFYNTTNKVRLPYHATLGIQRWWDNGSIPIWITAQRQGLKTGSFFYPGGNVTYQGEAVTMSRKEGVLHNYKNETEWRANVDTVMKWFTEEDVSLVTLYFGEPDSTGHKYGPESQERKDMVKQVDRTVGYLRDSIKRHHLTDSLNLIITSDHGMTTVNKKASDLVEFHKFPNFTFRDIEFELLDYGPNGMLIPKEGMLEKVYSVLKDAHPRLHVYKKEDFPKTFHYANNPRITSLLMYSDLGYVIHGRVNVQFNSGEHGFDNQDMDMKTIFRAVGPSFKAGLEVEPFESVHVYELMCQLLGIVPEPNDGHPGVLQPMLRSGSPLSRQHHLVVVLMGILTGLAKVV
For B3, in data set [3], the “effect on proliferation / cell growth of HT29 cells” value is reported as “dose-dependently inhibited cell growth” and the “effect on DNA synthesis of HT-29 cells” value was “decreased DNA synthesis”. The “effect on proliferation / cell growth of HT29 cells” value in data set [3] (listed as rat alkaline Smase) is “inhibit proliferation”.
